What was measured:
surinam grass = assay: Test B pre/postemergence surinam grass; format: in vivo, Brachiaria decumbens
Summary of the method: (§1)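 Test chemicals in a non-phytotoxic solvent mixture with surfactant were sprayed preemergence onto planted seeds and postemergence onto plants 2 to 18 cm tall (1- to 4-leaf stage). After twelve to sixteen days in a greenhouse, injury was visually rated against untreated controls from 0 (no effect) to 10 (complete control).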

cocklebur = assay: Test B pre/postemergence cocklebur; format: in vivo, Xanthium strumarium
Summary of the method: as §1

corn = assay: Test B pre/postemergence corn; format: in vivo, Zea mays
Summary of the method: as §1

crabgrass = assay: Test B pre/postemergence crabgrass; format: in vivo, Digitaria sanguinalis
Summary of the method: as §1

giant foxtail = assay: Test B pre/postemergence giant foxtail; format: in vivo, Setaria faberii
Summary of the method: as §1

morningglory = assay: Test B pre/postemergence morningglory; format: in vivo, Ipomoea hederacea
Summary of the method: as §1

pigweed = assay: Test B pre/postemergence pigweed; format: in vivo, Amaranthus retroflexus
Summary of the method: as §1

rape = assay: Test B pre/postemergence rape; format: in vivo, Brassica napus
Summary of the method: as §1

soybean = assay: Test B pre/postemergence soybean; format: in vivo, Glycine max
Summary of the method: as §1

sugar beet = assay: Test B pre/postemergence sugar beet; format: in vivo, Beta vulgaris
Summary of the method: as §1

wild oat = assay: Test B pre/postemergence wild oat; format: in vivo, Avena fatua
Summary of the method: as §1

purple nutsedge = assay: Test B pre/postemergence purple nutsedge; format: in vivo, Cyperus rotundus; details: Postemergence
Summary of the method: as §1

rice = assay: Test B flood test rice; format: in vivo, Oryza sativa
Summary of the method: (§2)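 Flood test on plants grown to the 2-leaf stage; treated plants kept in greenhouse twelve to sixteen days, then visually rated against controls on a 0 (no effect) to 10 (complete control) scale.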

smallflower flatsedge = assay: Test B flood test smallflower flatsedge; format: in vivo, Cyperus difformis
Summary of the method: as §2

duck salad = assay: Test B flood test duck salad; format: in vivo, Heteranthera limosa
Summary of the method: as §2

bamyardgrass = assay: Test B flood test barnyardgrass; format: in vivo, Echinochloa crus-galli
Summary of the method: as §2

[1] = Preemergence, Rate 62 g/ha, scale of 0 to 10 where 0 is no effect and 10 is complete control
[2] = Preemergence, Rate 500 g/ha, scale of 0 to 10 where 0 is no effect and 10 is complete control
[3] = Rate 62 g/ha, Postemergence, scale of 0 to 10 where 0 is no effect and 10 is complete control
[4] = Rate 125 g/ha, Preemergence, scale of 0 to 10 where 0 is no effect and 10 is complete control
[5] = Rate 500 g/ha, Postemergence, scale 0 to 10, 0 no effect, 10 complete control
[6] = Preemergence, Rate 250 g/ha, scale of 0 to 10 where 0 is no effect and 10 is complete control
[7] = Rate 125 g/ha, Postemergence, scale 0 to 10
[8] = Rate 62 g/ha, headed Pre-emergence (flood test species), scale 0 to 10 (0 no effect, 10 complete control)
[9] = Rate 125 g/ha, Pre-emergence, flood test species, scale 0 to 10 where 0 is no effect and 10 is complete control
[10] = Rate 250 g/ha, Pre-emergence, flood-test species, scale 0 to 10, 0 is no effect, 10 is complete control
[11] = Rate 500 g/ha, Pre-emergence, flood test species, scale 0 to 10 (0 no effect, 10 complete control)

Which “B. signalgrass plant response rating” value (surinam grass; [1]) does the source give for `CC(C)N(C(=O)n1oc(=O)n(CCC2OCCO2)c1=O)c1ccc(F)cc1` [Compound 219] here?
Its value is 4.

What about the “B. signalgrass plant response rating” value (surinam grass; Preemergence, Rate 250 g/ha, scale 0 to 10, 0 is no effect, 10 is complete control) of the same molecule?
The value was 9.

And the “Plant response rating, B. signalgrass” value (surinam grass; [2])?
Its value is 9.

What about the “B. signalgrass plant response rating” value (surinam grass; [3]) of the same molecule?
The value was 0.

What about the “B. signalgrass plant response rating” value (surinam grass; Rate 125 g/ha, Postemergence, scale 0 (no effect) to 10 (complete control)) of the same molecule?
Its value is 2.

And the “B. signalgrass plant response rating” value (surinam grass; [4])?
The value was 6.

What about the “Plant response rating (0 to 10; 0 is no effect, 10 is complete control), B. signalgrass” value (surinam grass; Rate 250 g/ha, Postemergence) of the same molecule?
The value was 5.

What about the “B. signalgrass plant response rating” value (surinam grass; [5]) of the same molecule?
The value was 8.

What about the “Cocklebur plant response rating” value (cocklebur; [1]) of the same molecule?
Its value is 0.

What about the “Cocklebur plant response rating” value (cocklebur; [6]) of the same molecule?
Its value is 0.

And the “Plant response rating, Cocklebur” value (cocklebur; [2])?
Its value is 0.

And the “Cocklebur plant response rating” value (cocklebur; [3])?
The value was 1.

What about the “Cocklebur plant response rating” value (cocklebur; [7]) of the same molecule?
Its value is 1.

And the “Cocklebur plant response rating” value (cocklebur; [4])?
Its value is 0.

What about the “Plant response rating (0 to 10; 0 is no effect, 10 is complete control), Cocklebur” value (cocklebur; Rate 250 g/ha, Postemergence) of the same molecule?
Its value is 4.

And the “Cocklebur plant response rating” value (cocklebur; [5])?
Its value is 4.

What about the “Corn plant response rating” value (corn; [1]) of the same molecule?
The value was 0.

What about the “Corn plant response rating” value (corn; [6]) of the same molecule?
The value was 5.

And the “Plant response rating, Corn” value (corn; [2])?
Its value is 7.

What about the “Corn plant response rating” value (corn; [3]) of the same molecule?
Its value is 0.

What about the “Corn plant response rating” value (corn; [7]) of the same molecule?
Its value is 0.

What about the “Corn plant response rating” value (corn; [4]) of the same molecule?
The value was 0.

And the “Plant response rating (0 to 10; 0 is no effect, 10 is complete control), Corn” value (corn; Rate 250 g/ha, Postemergence)?
Its value is 4.

What about the “Corn plant response rating” value (corn; [5]) of the same molecule?
Its value is 5.

And the “Crabgrass plant response rating” value (crabgrass; [1])?
The value was 5.

And the “Crabgrass plant response rating” value (crabgrass; [6])?
The value was 9.

And the “Plant response rating, Crabgrass” value (crabgrass; [2])?
Its value is 10.

What about the “Crabgrass plant response rating” value (crabgrass; [3]) of the same molecule?
Its value is 3.

What about the “Crabgrass plant response rating” value (crabgrass; [7]) of the same molecule?
The value was 4.

What about the “Crabgrass plant response rating” value (crabgrass; [4]) of the same molecule?
Its value is 8.

And the “Plant response rating (0 to 10; 0 is no effect, 10 is complete control), Crabgrass” value (crabgrass; Rate 250 g/ha, Postemergence)?
The value was 6.

What about the “Crabgrass plant response rating” value (crabgrass; [5]) of the same molecule?
Its value is 8.

And the “Giant foxtail plant response rating” value (giant foxtail; [1])?
Its value is 10.

What about the “Giant foxtail plant response rating” value (giant foxtail; [6]) of the same molecule?
Its value is 10.

What about the “Plant response rating, Giant foxtail” value (giant foxtail; [2]) of the same molecule?
The value was 10.

What about the “Giant foxtail plant response rating” value (giant foxtail; [3]) of the same molecule?
Its value is 6.

And the “Giant foxtail plant response rating” value (giant foxtail; [7])?
The value was 7.

And the “Giant foxtail plant response rating” value (giant foxtail; [4])?
Its value is 10.

And the “Plant response rating (0 to 10; 0 is no effect, 10 is complete control), Giant foxtail” value (giant foxtail; Rate 250 g/ha, Postemergence)?
The value was 8.

What about the “Giant foxtail plant response rating” value (giant foxtail; [5]) of the same molecule?
Its value is 9.

What about the “Morningglory plant response rating” value (morningglory; [1]) of the same molecule?
Its value is 0.

And the “Morningglory plant response rating” value (morningglory; [6])?
Its value is 0.

And the “Plant response rating, Morningglory” value (morningglory; [2])?
The value was 1.

And the “Morningglory plant response rating” value (morningglory; [3])?
The value was 6.

What about the “Morningglory plant response rating” value (morningglory; [7]) of the same molecule?
Its value is 6.

What about the “Morningglory plant response rating” value (morningglory; [4]) of the same molecule?
Its value is 0.

And the “Plant response rating (0 to 10; 0 is no effect, 10 is complete control), Morningglory” value (morningglory; Rate 250 g/ha, Postemergence)?
The value was 7.

And the “Morningglory plant response rating” value (morningglory; [5])?
The value was 7.

And the “Redroot pigweed plant response rating” value (pigweed; [1])?
The value was 0.

What about the “Redroot pigweed plant response rating” value (pigweed; [6]) of the same molecule?
The value was 9.

And the “Plant response rating, Redroot pigweed” value (pigweed; [2])?
Its value is 10.

What about the “Redroot pigweed plant response rating” value (pigweed; [3]) of the same molecule?
Its value is 5.

What about the “Redroot pigweed plant response rating” value (pigweed; [7]) of the same molecule?
Its value is 7.

What about the “Redroot pigweed plant response rating” value (pigweed; [4]) of the same molecule?
The value was 4.

What about the “Plant response rating (0 to 10; 0 is no effect, 10 is complete control), Redroot pigweed” value (pigweed; Rate 250 g/ha, Postemergence) of the same molecule?
Its value is 8.

What about the “Redroot pigweed plant response rating” value (pigweed; [5]) of the same molecule?
The value was 8.

What about the “Rape plant response rating” value (rape; [1]) of the same molecule?
Its value is 0.

What about the “Rape plant response rating” value (rape; [6]) of the same molecule?
The value was 6.

And the “Plant response rating, Rape” value (rape; [2])?
Its value is 10.

What about the “Rape plant response rating” value (rape; [3]) of the same molecule?
Its value is 2.

What about the “Rape plant response rating” value (rape; [7]) of the same molecule?
The value was 3.

And the “Rape plant response rating” value (rape; [4])?
The value was 0.

And the “Plant response rating (0 to 10; 0 is no effect, 10 is complete control), Rape” value (rape; Rate 250 g/ha, Postemergence)?
Its value is 7.

What about the “Rape plant response rating” value (rape; [5]) of the same molecule?
Its value is 7.

What about the “Soybean plant response rating” value (soybean; [1]) of the same molecule?
Its value is 0.

And the “Soybean plant response rating” value (soybean; [6])?
The value was 0.

And the “Plant response rating, Soybean” value (soybean; [2])?
Its value is 0.

What about the “Soybean plant response rating” value (soybean; [3]) of the same molecule?
The value was 5.

And the “Soybean plant response rating” value (soybean; [7])?
The value was 5.

And the “Soybean plant response rating” value (soybean; [4])?
Its value is 0.

And the “Plant response rating (0 to 10; 0 is no effect, 10 is complete control), Soybean” value (soybean; Rate 250 g/ha, Postemergence)?
The value was 7.

And the “Soybean plant response rating” value (soybean; [5])?
The value was 7.

What about the “Sugarbeets plant response rating” value (sugar beet; [1]) of the same molecule?
Its value is 3.

And the “Sugarbeets plant response rating” value (sugar beet; [6])?
The value was 4.

What about the “Plant response rating, Sugarbeets” value (sugar beet; [2]) of the same molecule?
The value was 8.

And the “Sugarbeets plant response rating” value (sugar beet; [3])?
The value was 4.

And the “Sugarbeets plant response rating” value (sugar beet; [7])?
The value was 4.

What about the “Sugarbeets plant response rating” value (sugar beet; [4]) of the same molecule?
The value was 4.

What about the “Plant response rating (0 to 10; 0 is no effect, 10 is complete control), Sugarbeets” value (sugar beet; Rate 250 g/ha, Postemergence) of the same molecule?
The value was 4.

What about the “Sugarbeets plant response rating” value (sugar beet; [5]) of the same molecule?
Its value is 7.

What about the “Wild oats plant response rating” value (wild oat; [1]) of the same molecule?
The value was 2.

What about the “Wild oats plant response rating” value (wild oat; [6]) of the same molecule?
Its value is 8.

And the “Plant response rating, Wild oats” value (wild oat; [2])?
The value was 9.

And the “Wild oats plant response rating” value (wild oat; [3])?
The value was 1.

What about the “Wild oats plant response rating” value (wild oat; [7]) of the same molecule?
Its value is 3.

And the “Wild oats plant response rating” value (wild oat; [4])?
The value was 5.

And the “Plant response rating (0 to 10; 0 is no effect, 10 is complete control), Wild oats” value (wild oat; Rate 250 g/ha, Postemergence)?
The value was 4.

What about the “Wild oats plant response rating” value (wild oat; [5]) of the same molecule?
The value was 6.

And the “Nutsedge plant response rating” value (purple nutsedge; Rate 62 g/ha, scale of 0 to 10 where 0 is no effect and 10 is complete control)?
The value was 0.

And the “Nutsedge plant response rating” value (purple nutsedge; Rate 125 g/ha, scale 0 to 10)?
Its value is 0.

And the “Plant response rating (0 to 10; 0 is no effect, 10 is complete control), Nutsedge” value (purple nutsedge; Rate 250 g/ha)?
The value was 0.

And the “Nutsedge plant response rating” value (purple nutsedge; Rate 500 g/ha, scale 0 to 10, 0 no effect, 10 complete control)?
The value was 0.

And the “Rice plant response rating” value (rice; [8])?
The value was 0.

What about the “Rice plant response rating” value (rice; [9]) of the same molecule?
Its value is 0.

What about the “Rice plant response rating” value (rice; [10]) of the same molecule?
Its value is 0.

And the “Rice plant response rating” value (rice; [11])?
The value was 6.

What about the “S. Flatsedge plant response rating” value (smallflower flatsedge; [8]) of the same molecule?
Its value is 0.

What about the “S. Flatsedge plant response rating” value (smallflower flatsedge; [9]) of the same molecule?
Its value is 0.

And the “S. Flatsedge plant response rating” value (smallflower flatsedge; [10])?
The value was 0.

And the “S. Flatsedge plant response rating” value (smallflower flatsedge; [11])?
Its value is 4.

And the “Ducksalad plant response rating” value (duck salad; [8])?
Its value is 0.

And the “Ducksalad plant response rating” value (duck salad; [9])?
Its value is 0.

And the “Ducksalad plant response rating” value (duck salad; [10])?
The value was 0.

What about the “Ducksalad plant response rating” value (duck salad; [11]) of the same molecule?
The value was 3.

What about the “Barnyardgrass plant response rating” value (bamyardgrass; [8]) of the same molecule?
The value was 0.

What about the “Barnyardgrass plant response rating” value (bamyardgrass; [9]) of the same molecule?
Its value is 0.

What about the “Barnyardgrass plant response rating” value (bamyardgrass; [10]) of the same molecule?
The value was 8.

What about the “Barnyardgrass plant response rating” value (bamyardgrass; [11]) of the same molecule?
Its value is 9.

Source: patent US6737383B1, “Herbicidal oxadiazolidines” (priority 1999, dated 2004)
